Structures are written as SMILES.

The EC50 is the concentration that produces a half-maximal response.

For the test, the system named is S. cerevisiae CIT2-GFP strain, flow cytometry fluorescence, 3 h. Briefly: yeast TOR pathway CIT2-GFP reporter analogs – flow cytometry, cherry pick 3, dose response, SAR follow-up (AID 488825). (In general: A flow cytometer gives signals particle by particle.)

Turning to `CNc1nc(N)c([N+](=O)[O-])c(Nc2cccc(Cl)c2)n1`, the EC50 is 5.72 µM.

For the origin of these results see PubChem BioAssay AID488825 (NMMLSC, 2010).
